Measurements taken from patent US4719217A, “Certain N-azabicycloalkyl-benzamides useful in the treatment of impaired gastro-intestinal motility or emesis” (Beecham Group p.l.c., priority 1985, dated 1988).

Columns and labels:
[1] = test system: Intraluminal pressure in the Heidenhain pouch; assay: Intraluminal pressure in the Heidenhain pouch of the dog (increase in amplitude of rhythmical contractions); assay type: in vivo; conditions: Canis lupus familiaris, iv, fasted lightly restrained conscious, increase in amplitude of rhythmical contractions for at least 4-5 minutes
Description: 2. Intraluminal pressure in the Heidenhain pouch of the dog
Pressure changes were recorded via a saline filled catheter inserted, with airtight closure, into the fistula of a chronic Heidenhain pouch of the previously fasted and lightly restrained conscious dog. The catheter was connected to a physiological pressure transducer and pressure changes recorded on a hot wire pen recorder. Compounds were administered when the motility was in a phase of relatively low activity and the dose range determined which induced an increase in the amplitude of rhythmical contractions for a period of at least 4-5 minutes.

Intragastric pressure = Intragastric pressure in the rat (gastric motility, fasted conscious restrained rats); assay type: in vivo; conditions: sc, 40 min, s.c., intragastric pressure waves, 40 minute period following dosing
Description: 1. Intragastric pressure in the rat
Intragastric pressure changes were recorded from fasted conscious and restrained rats using a saline filled catheter inserted into the lumen of the stomach via a permanent gastric fistula. The catheter was connected to a physiological pressure transducer and pressure changes recorded on a hot wire pen recorder. An index of activity was obtained by measuring the average height of pressure waves during 10 minute periods. Values for 4 such periods were obtained during assessment of spontaneous activity prior to dosing and for the 40 minute period following dosing with compound or vehicle. The Student's "t" test was applied to the mean values obtained for activity prior to and post treatment. Groups of 10 animals were used for each treatment.

| Structure (SMILES) | ED50 [1] [mg/kg] | ED50 (Intragastric pressure) [mg/kg] |
| --- | --- | --- |
| COc1cc(N)c(Cl)cc1C(=O)NC1C2CCC1CN(C)C2 (racemic) [Example E1, (±) (8β)-4-Amino-5-chloro-2-methoxy-N-(3-methyl-3-azabicyclo[3,2,1]octan-8-yl)benzamide] | 0.05 |  |
| COc1cc(N)c(Cl)cc1C(=O)NC1C2CCC1CN(C)C2 (racemic) [Example E2, (±) (8α)-4-Amino-5-chloro-2-methoxy-N-(3-methyl-3azabicyclo[3,2,1]octan-8-yl)benzamide] |  | 0.5 |
| CCN1CC2CCC(C1)C2NC(=O)c1cc(Cl)c(N)cc1OC (racemic) [Example E5, (±)(8β)-4-Amino-5-chloro-2-methoxy-N-(3-ethyl-3-azabicyclo[3,2,1]octan-8-yl)benzamide] | 0.01 |  |
